Assay results as given in PMC5708646, “Single-molecule study of full-length NaChBac by planar lipid bilayer recording” (PLoS ONE, 2017).

Molecular target: T1, NaChBac (Halalkalibacterium halodurans, UniProt Q9KCR8)
T1 construct: gene BH1501
T1 sequence (Q9KCR8 1-274): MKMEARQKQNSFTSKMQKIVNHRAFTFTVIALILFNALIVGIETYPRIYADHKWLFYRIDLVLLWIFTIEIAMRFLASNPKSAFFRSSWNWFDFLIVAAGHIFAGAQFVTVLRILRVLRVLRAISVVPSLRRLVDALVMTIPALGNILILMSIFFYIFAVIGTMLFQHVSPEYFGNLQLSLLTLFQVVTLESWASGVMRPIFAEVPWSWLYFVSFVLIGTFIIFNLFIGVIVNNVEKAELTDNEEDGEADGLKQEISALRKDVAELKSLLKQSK
Assay: planar lipid bilayer current recording, reconstituted purified channel
Assay type: biochemical
Details: block from the intracellular side, reversible on washout; concentration not printed for this test; step from -120 to +60 mV; POPE/POPG bilayer; pH 7.4

In the case of `CC[N+](CC)(CC)CC(=O)Nc1c(C)cccc1C` [lidocaine N-ethyl bromide], the “planar lipid bilayer current recording, reconstituted purified channel” value was “It was observed that the current completely dimished (red trace of Fig 3C)”.
